Measurements as given in US6821959B1, “Antibiotic-natural polysaccharide polymer adducts” (Istituto Biochimico Pavese Pharma S.p.A, priority 1999, dated 2004).
Values after ≈ are worked out from the molar mass of the structure shown.

Assays:
[1] = test system: field Staphylococcus aureus (strain C); assay: Minimum inhibiting concentration (MIC) in vitro, dilutions in liquid medium, strain C; format: cell-based; conditions: Mueller-Hinton broth pH=7.4, 37° C. 18-24 hours; for MIC: Staphylococcus aureus
Experimental: (§1) To produce a bacterial growth, a strain of Staphylococcus aureus ATCC 6538 P (strain A) and two strains of field Staphylococcus aureus (strains B and C) were used. […] A drop of broth (dilution 1:10) was added to all test tubes, which were incubated at 37° C. for 18-24 hours. Then, the test tube with the highest dilution free of any turbidity was considered as the one containing the minimum inhibiting concentration (MIC).

[2] = test system: Staphylococcus aureus ATCC 6538 P (strain A); assay: Inhibition halos, diffusion method, strain A; format: cell-based
Source text: (§2) The inhibition halos were obtained through the diffusion method (Farmacopea Ufftclale Italiana, IX ed., page 315), using a culture medium “Mueller-Hinton Medium Difco, with a low thymine and thymidine content, in sterile Petri plates (9 cm in diameter), with Tryptic Soy Broth (Difco).
(§3) For the sensitivity test, both paper filtering disks, imbibed of a fixed quantity of antibiotic and the relevant adduct disks, having the same total dose, but a lower molar ratio of the active principle were prepared.
(§4) To produce a bacterial growth, a strain of Staphylococcus aureus ATCC 6538 P (strain A) and two strains of field Staphylococcus aureus (strains B and C) were used.
(§5) The culture broths were prepared placing a loop of bacterial coating of an agar culture (12 h) in a test tube containing sterile Tryptic Soy Broth (5 ml), successively incubated at 37° C. for 4 hours.
(§6) When necessary, the suspensions have been diluted with sterile water in order to obtain a turbidity similar to the reference standard (0.5 McFarland). The Mueller-Hinton culture medium (150 ml) was sterilized at 121° C. for 15 minutes; a part of it was positioned on sterile Petri plates (9 cm in diameter), was let to solidify, while another part was cooled at approx. 45° C., was inoculated with the bacterial suspensions as above prepared (15 ml) and poured onto the solidified agar surface (10 ml per plate).
(§7) The sown plates were let dry (open) under a laminar flow hood for 15 minutes, then the disks were placed on their surface (four each plate), i.e. the adduct and antibiotic according to the two desired concentrations. The prepared plates (five each tests) were overturned and incubated at 37° C. for 16 hours. After this interval, the inhibition halos were produced. The results are shown in Table 1, where F.U. indicates the dosage recommended by Farmacopea Ufficiale Italiana, IX ed., vol. 1

Staphylococcus aureus = assay: In vivo activity in mice infected with Staphylococcus aureus (ulcerative dermatitis), bacteriologic test; design: species or system albino mice; conditions: for Bacteriologic test after 5 days of therapy, negative / Bacteriologic test after 5 days of therapy, positive: number of subjects; for % of recovery: subjects with post-infective clinical symptoms, after 5 days of therapy
Experimental: The antibiotics and the respective adducts were used in solution with distilled water for injectables or with purified water for oral use. Common albino mice (average weight: 28 g), previously infected with Staphylococcus aureus (which is not resistant to the examined antibiotics), that had developed ulcerative dermatitis, with localized abscesses and popodermatitis […] were treated with the prepared solutions every 24 hours for 5 days. After this treatment, a bacteriologic checking through isolation was performed, using pads on the animal skin and inoculating the sample drawn from the […] on the plate.

[3] = test system: field Staphylococcus aureus (strain C); assay: Inhibition halos, diffusion method, strain C; format: cell-based
Source text: as §2, §3, §4, §5, §6, §7

[4] = test system: field Staphylococcus aureus (strain B); assay: Minimum inhibiting concentration (MIC) in vitro, dilutions in liquid medium, strain B; format: cell-based; conditions: Mueller-Hinton broth pH=7.4, 37° C. 18-24 hours; for MIC: Staphylococcus aureus
Experimental: as §1

[5] = test system: field Staphylococcus aureus (strain B); assay: Inhibition halos, diffusion method, strain B; format: cell-based
Source text: as §2, §3, §4, §5, §6, §7

[6] = test system: Staphylococcus aureus ATCC 6538 P (strain A); assay: Minimum inhibiting concentration (MIC) in vitro, dilutions in liquid medium, strain A; format: cell-based; conditions: Mueller-Hinton broth pH=7.4, 37° C. 18-24 hours; for MIC: Staphylococcus aureus, ATCC6538
Experimental: as §1

S. aureus Smith BT13 = assay: Murine model of Staphylococcus aureus subcutaneous abscess; format: in vivo, swiss mice; conditions: for Size scored: abscess size scored 0 to 3 per mouse, group sum; for Total abscesses in 30 mice / Total score (size scored) in 30 mice: cephalosporin, sum of 25, 50, 100 mg/kg groups; for Cured infected mice of 30: parent cephalosporin, 25, 50, 100 mg/kg groups together
Experimental: 200 Male swiss mice were housed in temperature and humidity controlled animal rooms. The body weight on the day of infection was 25 g (SD 1.2, no 10). Culture media Brain Heart Infusion Broth (Difco) (BHI) and Brain Heart Infusion Agar (Merck) (BHIA) were prepared according to the manufacturer instructions and autoclaved for 15 mins at 121° C. S. aureus Smith BT13 was used at infecting organism. It was stored frozen at −80° C. […] For each test article, a stock solution was prepared by dissolving the drug with 5 ml of water for injectables (5 mg/ml drug concentration for cephalosporins and 3 mg/ml for the adducts). Dilutions 1:2 and 1:4 were prepared using the same vehicles. All solutions were prepared immediately before use. […] At 6 h after inoculation, groups of 10 mice were dosed intraperitoneally with 0.5 ml either of one of the antibiotic solutions, while an untreated control group of 10 mice was injected intraperitoneally with 0.5 ml sterile water. […] On the third day after infection, all mice were sacrificed and autopsied. Presence and size of abscesses were recorded. […] The activity of all compounds was compared by the non parametric Mann-Whitney U test. Statistical significance was for p<0.05.

Solubility in water = format: physicochemical; conditions: of water, pH=4.8
[7] = disk dose 4 μg (adduct: same total dose), 37° C. 16 hours
[8] = disk dose 8 μg (adduct: same total dose)
[9] = infected subjects without post-infective clinical symptoms (NO)
[10] = subjects with post-infective clinical symptoms (YES), treated every 24 hours for 5 days
[11] = disk dose 0.64 μg (F.U.) (adduct: same total dose)
[12] = disk dose 1.56 μg (F.U.) (adduct: same total dose)
[13] = disk dose 6 μg (adduct: same total dose)

With CC1(C)S[C@@H]2[C@H](NC(=O)[C@H](N)c3ccc(O)cc3)C(=O)N2[C@H]1C(=O)O [Amoxycillin] the MIC [1] was 0.08 µg/mL (≈ 0.219 µM), the “Halos on strain A” value [2, 7] was 12.0 mm and the “Halos on strain A” value [2, 8] was 13.2 mm. For the same compound, the “Bacteriologic test after 5 days of therapy, negative” value (shortened to “Bacteriologic test … negative”) (Staphylococcus aureus; [9]) was 0, the “Bacteriologic test after 5 days of therapy, positive” value (“Bacteriologic test … positive” for short) (Staphylococcus aureus; [9]) was 0 and the “Bacteriologic test … negative” value (Staphylococcus aureus; [10]) was 13. The “Bacteriologic test … positive” value (Staphylococcus aureus; [10]) was 0, the “% of recovery” value (Staphylococcus aureus) was 100% and the “Halos on strain C” value [3, 7] was 9.7 mm. The “Halos on strain C” value [3, 8] was 10.0 mm, the MIC [4] was 0.2 µg/mL (≈ 0.547 µM) and the “Halos on strain B” value [5, 7] was 13.0 mm. For the same compound, the “Halos on strain B” value [5, 8] was 14.0 mm and the MIC [6] was 0.1 µg/mL (≈ 0.274 µM).
Compound Cc1nnc(SCC2=C(C(=O)O)N3C(=O)[C@@H](NC(=O)Cn4cnnn4)[C@H]3SC2)s1 [Cefazolin] has an MIC [1] of 0.54 µg/mL (≈ 1.19 µM), a Size scored (S. aureus Smith BT13; cephalosporin 25 mg/kg/dose) of 17 and a Size scored (S. aureus Smith BT13; cephalosporin 50 mg/kg/dose) of 4. The Size scored (S. aureus Smith BT13; cephalosporin 100 mg/kg/dose) was 0, the “Total abscesses in 30 mice” value (S. aureus Smith BT13) was 8 absc and the “Total score (size scored) in 30 mice” value (S. aureus Smith BT13) was 21. For the same compound, the “Cured infected mice of 30” value (S. aureus Smith BT13) was 22, the “Halos on strain A” value [2, 11] was 11.0 mm and the “Halos on strain A” value [2, 12] was 12.2 mm. For the same compound, the “Bacteriologic test … negative” value (Staphylococcus aureus; [10]) was 15, the “Bacteriologic test … positive” value (Staphylococcus aureus; [10]) was 0 and the “% of recovery” value (Staphylococcus aureus) was 100%. For the same compound, the “Halos on strain C” value [3, 11] was 10.1 mm, the “Halos on strain C” value [3, 12] was 10.9 mm and the MIC [4] was 0.64 µg/mL (≈ 1.41 µM). The “Halos on strain B” value [5, 11] was 8.5 mm, the “Halos on strain B” value [5, 12] was 10.1 mm and the MIC [6] was 0.5 µg/mL (≈ 1.1 µM).
In the case of CO/N=C(\C(=O)N[C@@H]1C(=O)N2C(C(=O)O)=C(COC(C)=O)CS[C@H]12)c1csc(N)n1 [Cefotaxime], the Size scored (S. aureus Smith BT13; cephalosporin 25 mg/kg/dose) is reported as 11, the Size scored (S. aureus Smith BT13; cephalosporin 50 mg/kg/dose) is reported as 3 and the Size scored (S. aureus Smith BT13; cephalosporin 100 mg/kg/dose) is reported as 0. For the same compound, the “Total abscesses in 30 mice” value (S. aureus Smith BT13) was 6 absc, the “Total score (size scored) in 30 mice” value (S. aureus Smith BT13) was 14 and the “Cured infected mice of 30” value (S. aureus Smith BT13) was 24/30.
For CC1=C(C(=O)O)N2C(=O)[C@@H](NC(=O)[C@H](N)C3=CCC=CC3)[C@H]2SC1 [Cefradin], the MIC [1] was 4.3 µg/mL (≈ 12.3 µM), the “Halos on strain A” value [2, 11] was 10.0 mm and the “Halos on strain A” value [2, 12] was 12.1 mm. The solubility (Solubility in water) was 4000 µg/mL (≈ 11400 µM), the “Bacteriologic test … negative” value (Staphylococcus aureus; [10]) was 15 and the “Bacteriologic test … positive” value (Staphylococcus aureus; [10]) was 0. The “% of recovery” value (Staphylococcus aureus) was 100%, the “Halos on strain C” value [3, 11] was 9.7 mm and the “Halos on strain C” value [3, 12] was 10.0 mm. The MIC [4] was 4.8 µg/mL (≈ 13.7 µM), the “Halos on strain B” value [5, 11] was 7.0 mm and the “Halos on strain B” value [5, 12] was 9.0 mm. The MIC [6] was 4 µg/mL (≈ 11.4 µM).
CO/N=C(\C(=O)N[C@@H]1C(=O)N2C(C(=O)O)=C(CSc3nc(=O)c(=O)[nH]n3C)CS[C@H]12)c1csc(N)n1 [Ceftriaxone] gave a Size scored (S. aureus Smith BT13; cephalosporin 25 mg/kg/dose) of 17, a Size scored (S. aureus Smith BT13; cephalosporin 50 mg/kg/dose) of 14 and a Size scored (S. aureus Smith BT13; cephalosporin 100 mg/kg/dose) of 10. For the same compound, the “Total abscesses in 30 mice” value (S. aureus Smith BT13) was 19 absc, the “Total score (size scored) in 30 mice” value (S. aureus Smith BT13) was 41 and the “Cured infected mice of 30” value (S. aureus Smith BT13) was 11/30.
For Gentamicin, the “MIC on strain C” value [1] was 0.139 µg/mL, the “Halos on strain A” value [2, 7] was 12.1 mm and the “Halos on strain A” value [2, 13] was 13.1 mm. The “Bacteriologic test … negative” value (Staphylococcus aureus; [9]) was 0, the “Bacteriologic test … positive” value (Staphylococcus aureus; [9]) was 0 and the “Bacteriologic test … negative” value (Staphylococcus aureus; [10]) was 13. The “Bacteriologic test … positive” value (Staphylococcus aureus; [10]) was 0, the “% of recovery” value (Staphylococcus aureus) was 100% and the “Halos on strain C” value [3, 7] was 12.8 mm. The “Halos on strain C” value [3, 13] was 13.9 mm, the “MIC on strain B” value [4] was 0.15 µg/mL and the “Halos on strain B” value [5, 7] was 11.8 mm. For the same compound, the “Halos on strain B” value [5, 13] was 12.0 mm and the “MIC on strain A” value [6] was 0.125 µg/mL.
